Data from the CheMixHub viscosity set.
Values joined by “and” are separate entries in the source; they are usually repeats but may differ in a detail not shown here. Equal entries are not always repeated. ± gives the uncertainty stated by the source.

Assay: xn = mol fraction of the nth substance listed

OC[C@@H](O)[C@@H](O)[C@H](O)[C@H](O)CO + O
viscosity, 101 kPa
Conditions | 298.15 K | 303.15 K | 308.15 K | 313.15 K | 318.15 K | 323.15 K
x1 = 0.002 | – | 0.837 ± 0.007 mPa·s | 0.748 ± 0.006 mPa·s | 0.674 ± 0.006 mPa·s | – | 0.565 ± 0.005 mPa·s
x1 = 0.003588 | 0.9818 ± 0.0078 mPa·s | – | – | – | – | –
x1 = 0.004 | – | 0.872 ± 0.008 mPa·s | 0.777 ± 0.007 mPa·s | 0.705 ± 0.006 mPa·s | 0.645 ± 0.006 mPa·s | 0.587 ± 0.005 mPa·s
x1 = 0.005 | – | 0.909 ± 0.008 mPa·s | 0.814 ± 0.007 mPa·s | 0.732 ± 0.007 mPa·s | 0.671 ± 0.006 mPa·s | 0.61 ± 0.006 mPa·s
x1 = 0.007 | – | 0.941 ± 0.009 mPa·s | 0.845 ± 0.008 mPa·s | 0.757 ± 0.007 mPa·s | 0.692 ± 0.006 mPa·s | 0.626 ± 0.006 mPa·s
x1 = 0.007158 | 1.085 ± 0.0086 mPa·s | – | – | – | – | –
x1 = 0.009 | – | 0.983 ± 0.009 mPa·s | 0.883 ± 0.008 mPa·s | 0.788 ± 0.007 mPa·s | 0.722 ± 0.007 mPa·s | 0.653 ± 0.006 mPa·s
x1 = 0.01 | – | 1.069 ± 0.01 mPa·s | 0.914 ± 0.009 mPa·s and 0.949 ± 0.009 mPa·s and 0.992 ± 0.01 mPa·s | 0.821 ± 0.008 mPa·s and 0.886 ± 0.009 mPa·s | 0.75 ± 0.007 mPa·s and 0.777 ± 0.008 mPa·s and 0.81 ± 0.008 mPa·s | 0.673 ± 0.007 mPa·s and 0.697 ± 0.007 mPa·s and 0.731 ± 0.007 mPa·s
x1 = 0.01069 | 1.191 ± 0.0093 mPa·s | – | – | – | – | –
x1 = 0.01422 | 1.311 ± 0.01 mPa·s | – | – | – | – | –
x1 = 0.01769 | 1.442 ± 0.011 mPa·s | – | – | – | – | –
x1 = 0.018 | – | 1.217 ± 0.013 mPa·s | 1.088 ± 0.011 mPa·s | 0.966 ± 0.01 mPa·s | 0.876 ± 0.009 mPa·s | 0.786 ± 0.008 mPa·s
x1 = 0.02 | – | 1.17 ± 0.012 mPa·s | 1.038 ± 0.011 mPa·s | 0.928 ± 0.01 mPa·s | 0.84 ± 0.009 mPa·s | 0.756 ± 0.008 mPa·s

c1ccc(Cc2ccccc2)cc1 + c1ccccc1
302.85 K, 101 kPa
Conditions | viscosity [mPa·s]
x1 = 0.113 | 0.733 ± 0.019
x1 = 0.204 | 0.877 ± 0.023
x1 = 0.288 | 1.026 ± 0.027
x1 = 0.523 | 1.502 ± 0.04
x1 = 0.686 | 1.873 ± 0.049
x1 = 0.801 | 2.132 ± 0.056
x1 = 0.893 | 2.342 ± 0.062

CCCCOC(=O)C(C)O (configuration not stated) + CCCO
101 kPa, x1 = 0.8998
Conditions | viscosity [mPa·s]
303.15 K | 2.685 ± 0.044
313.15 K | 2.075 ± 0.034

CCCCC(CC)COP(=O)(O)OCC(CC)CCCC (configuration not stated) + CCCC(=O)O
303.15 K, 101 kPa
Conditions | viscosity [mPa·s]
x1 = 0.0532 | 1.784 ± 0.084
x1 = 0.1098 | 2.592 ± 0.12
x1 = 0.1892 | 3.578 ± 0.16
x1 = 0.2612 | 4.602 ± 0.2
x1 = 0.3278 | 5.698 ± 0.24
x1 = 0.4066 | 7.172 ± 0.29
x1 = 0.5002 | 8.886 ± 0.35
x1 = 0.6095 | 11.21 ± 0.43
x1 = 0.6884 | 12.9 ± 0.48
x1 = 0.7405 | 14.01 ± 0.52
x1 = 0.8096 | 15.38 ± 0.57
x1 = 0.8811 | 16.81 ± 0.62
x1 = 0.9342 | 17.79 ± 0.66

CCCCOCCOCCOCCO + ClC=C(Cl)Cl
298.15 K, 101.33 kPa
Conditions | viscosity [mPa·s]
x1 = 0.008 | 0.55 ± 0.006
x1 = 0.0207 | 0.583 ± 0.006
x1 = 0.0326 | 0.62 ± 0.006
x1 = 0.0484 | 0.671 ± 0.007
x1 = 0.0692 | 0.742 ± 0.007
x1 = 0.0868 | 0.809 ± 0.008
x1 = 0.1122 | 0.913 ± 0.009
x1 = 0.1472 | 1.064 ± 0.01
x1 = 0.1817 | 1.242 ± 0.012
x1 = 0.2132 | 1.421 ± 0.014
x1 = 0.2487 | 1.641 ± 0.016
x1 = 0.2772 | 1.839 ± 0.018
x1 = 0.3104 | 2.088 ± 0.021
x1 = 0.3418 | 2.329 ± 0.023
x1 = 0.3841 | 2.663 ± 0.027
x1 = 0.4202 | 2.968 ± 0.03
x1 = 0.4555 | 3.288 ± 0.034
x1 = 0.4882 | 3.585 ± 0.037
x1 = 0.5244 | 3.929 ± 0.041
x1 = 0.5826 | 4.489 ± 0.048
x1 = 0.6409 | 5.1 ± 0.055
x1 = 0.6866 | 5.591 ± 0.061
x1 = 0.7428 | 6.2 ± 0.068
x1 = 0.8128 | 6.968 ± 0.078
x1 = 0.8883 | 7.84 ± 0.09
x1 = 0.9261 | 8.238 ± 0.095
x1 = 0.967 | 8.732 ± 0.1
x2 = 0.0136 | 8.939 ± 0.11

Cc1cccc(O)c1 + O=Cc1ccccc1
308.15 K, 101.33 kPa
Conditions | viscosity [mPa·s]
x2 = 0.103 | 5.863 ± 0.12
x2 = 0.308 | 3.972 ± 0.073
x2 = 0.398 | 3.45 ± 0.061
x2 = 0.545 | 2.597 ± 0.042
x2 = 0.602 | 2.3 ± 0.036
x2 = 0.704 | 1.844 ± 0.028
x2 = 0.903 | 1.37 ± 0.018

Brc1ccc(Br)cc1 + c1ccccc1
viscosity [mPa·s], 101 kPa
Conditions | 298.15 K | 303.15 K | 308.15 K | 313.15 K
x1 = 0.2002 | 0.8249 ± 0.021 | 0.7715 ± 0.019 | 0.719 ± 0.018 | 0.6739 ± 0.017
x1 = 0.2312 | 0.8532 ± 0.021 | 0.8051 ± 0.02 | 0.7502 ± 0.019 | 0.7021 ± 0.018

C[N+](=O)[O-] + CCC(C)O
viscosity [mPa·s], 101.33 kPa
Conditions | 293.15 K | 303.15 K | 313.15 K
x2 = 0.05 | 0.631 ± 0.006 | 0.562 ± 0.005 | 0.508 ± 0.005
x2 = 0.1 | 0.639 ± 0.006 | 0.564 ± 0.005 | 0.504 ± 0.005
x2 = 0.15 | 0.65 ± 0.006 | 0.571 ± 0.005 | 0.506 ± 0.005
x2 = 0.2002 | 0.676 ± 0.006 | 0.584 ± 0.006 | 0.515 ± 0.005
x2 = 0.25 | 0.707 ± 0.007 | 0.605 ± 0.006 | 0.528 ± 0.005
x2 = 0.3 | 0.751 ± 0.007 | 0.633 ± 0.006 | 0.546 ± 0.005
x2 = 0.35 | 0.805 ± 0.007 | 0.666 ± 0.006 | 0.574 ± 0.005
x2 = 0.4 | 0.864 ± 0.008 | 0.705 ± 0.007 | 0.595 ± 0.006
x2 = 0.45 | 0.931 ± 0.009 | 0.751 ± 0.007 | 0.625 ± 0.006
x2 = 0.5 | 0.995 ± 0.009 | 0.798 ± 0.007 | 0.659 ± 0.006
x2 = 0.5502 | 1.081 ± 0.01 | 0.854 ± 0.008 | 0.7 ± 0.007
x2 = 0.6 | 1.169 ± 0.011 | 0.916 ± 0.008 | 0.743 ± 0.007
x2 = 0.6499 | 1.275 ± 0.012 | 0.991 ± 0.009 | 0.796 ± 0.007
x2 = 0.7 | 1.4 ± 0.013 | 1.079 ± 0.01 | 0.857 ± 0.008
x2 = 0.75 | 1.547 ± 0.014 | 1.187 ± 0.011 | 0.933 ± 0.009
x2 = 0.8 | 1.742 ± 0.016 | 1.316 ± 0.012 | 1.03 ± 0.009
x2 = 0.85 | 1.995 ± 0.018 | 1.5 ± 0.013 | 1.14 ± 0.01
x2 = 0.9001 | 2.341 ± 0.021 | 1.703 ± 0.015 | 1.283 ± 0.012
x2 = 0.95 | 2.845 ± 0.025 | 2.02 ± 0.018 | 1.477 ± 0.013

C[N+](=O)[O-] + CCCO
viscosity [mPa·s]
Conditions | 293.15 K | 298.15 K | 303.15 K | 313.15 K
101 kPa, x1 = 0.1338 | – | 1.55 ± 0.16 | – | –
101 kPa, x1 = 0.2584 | – | 1.24 ± 0.12 | – | –
101 kPa, x1 = 0.3737 | – | 1.011 ± 0.1 | – | –
101 kPa, x1 = 0.4815 | – | 0.8394 ± 0.085 | – | –
101 kPa, x1 = 0.5819 | – | 0.7389 ± 0.074 | – | –
101 kPa, x1 = 0.6764 | – | 0.6772 ± 0.068 | – | –
101 kPa, x1 = 0.7649 | – | 0.6555 ± 0.066 | – | –
101 kPa, x1 = 0.8479 | – | 0.6441 ± 0.065 | – | –
101 kPa, x1 = 0.9262 | – | 0.6388 ± 0.064 | – | –
101.33 kPa, x2 = 0.0501 | 0.636 ± 0.006 | – | 0.565 ± 0.005 | 0.508 ± 0.005
101.33 kPa, x2 = 0.1001 | 0.633 ± 0.006 | – | 0.56 ± 0.005 | 0.501 ± 0.005
101.33 kPa, x2 = 0.1501 | 0.64 ± 0.006 | – | 0.563 ± 0.005 | 0.502 ± 0.005
101.33 kPa, x2 = 0.2 | 0.656 ± 0.006 | – | 0.574 ± 0.005 | 0.508 ± 0.005
101.33 kPa, x2 = 0.25 | 0.681 ± 0.006 | – | 0.591 ± 0.006 | 0.519 ± 0.005
101.33 kPa, x2 = 0.3001 | 0.713 ± 0.007 | – | 0.612 ± 0.006 | 0.534 ± 0.005
101.33 kPa, x2 = 0.3501 | 0.753 ± 0.007 | – | 0.639 ± 0.006 | 0.553 ± 0.005
101.33 kPa, x2 = 0.4001 | 0.795 ± 0.007 | – | 0.67 ± 0.006 | 0.576 ± 0.005
101.33 kPa, x2 = 0.45 | 0.843 ± 0.008 | – | 0.704 ± 0.007 | 0.6 ± 0.006
101.33 kPa, x2 = 0.5 | 0.892 ± 0.008 | – | 0.74 ± 0.007 | 0.629 ± 0.006
101.33 kPa, x2 = 0.5501 | 0.949 ± 0.009 | – | 0.785 ± 0.007 | 0.661 ± 0.006
101.33 kPa, x2 = 0.6001 | 1.01 ± 0.009 | – | 0.832 ± 0.008 | 0.697 ± 0.007
101.33 kPa, x2 = 0.65 | 1.081 ± 0.01 | – | 0.886 ± 0.008 | 0.739 ± 0.007
101.33 kPa, x2 = 0.7 | 1.162 ± 0.011 | – | 0.95 ± 0.009 | 0.789 ± 0.007
101.33 kPa, x2 = 0.75 | 1.26 ± 0.011 | – | 1.023 ± 0.009 | 0.845 ± 0.008
101.33 kPa, x2 = 0.8 | 1.375 ± 0.012 | – | 1.112 ± 0.01 | 0.912 ± 0.008
101.33 kPa, x2 = 0.85 | 1.519 ± 0.014 | – | 1.218 ± 0.011 | 0.993 ± 0.009
101.33 kPa, x2 = 0.9 | 1.693 ± 0.015 | – | 1.349 ± 0.012 | 1.094 ± 0.01
101.33 kPa, x2 = 0.95 | 1.911 ± 0.017 | – | 1.51 ± 0.014 | 1.214 ± 0.011
